Assay results from patent US11180496B2 (Daewoong Pharmaceutical Co., Ltd., priority 2017, dated 2021).

Columns and labels:
BTK = molecular target: T1, BTK (Homo sapiens, UniProt Q06187); assay: BTK inhibitory activity, ADP-Glo + BTK Kinase enzyme system kit (Promega); type: biochemical; settings: BTK enzyme 1 ng/uL, ATP 10 uM, 15 min preincubation, luminescence, duplicate
T1 construct: purchased Promega
Experimental: (§1) The inhibitory activity against BTK and ITK of the compounds prepared in Examples above were measured as follows.
(§2) The inhibitory activity against BTK was evaluated using ‘ADP-Glo™+BTK Kinase enzyme system’ kit from Promega. […] 5 uL of substrate and 5 uL of ATP prepared at a final concentration of 10 uM were added to all wells of the plate after completion of the reaction, and allowed to react at 30° C. for 1 hour. All wells of the plate after completion of the reaction were treated with 25 uL of ADP-Glo™ reagent and reacted at 30° C. for 40 minutes. Then, 50 uL of the kinase detection buffer was applied to all wells of the plate, and then the light was blocked and reacted at 30° C. for 30 minutes. For the plate for which all reactions were completed, the luminescence was measured and the results were calculated. The evaluation was performed in duplicate. The respective values of negative and positive controls, depending on whether the enzymes were added without treatment of the compound, were determined, and IC50 was calculated based on the values.

ITK = molecular target: T2, ITK (Homo sapiens, UniProt Q08881); assay: ITK inhibitory activity, ADP-Glo + ITK Kinase enzyme system kit (Promega); type: biochemical; settings: ITK enzyme 0.4 ng/uL, ATP 25 uM, 15 min preincubation, luminescence, duplicate
T2 construct: purchased Promega
T2 sequence (Q08881 1-620): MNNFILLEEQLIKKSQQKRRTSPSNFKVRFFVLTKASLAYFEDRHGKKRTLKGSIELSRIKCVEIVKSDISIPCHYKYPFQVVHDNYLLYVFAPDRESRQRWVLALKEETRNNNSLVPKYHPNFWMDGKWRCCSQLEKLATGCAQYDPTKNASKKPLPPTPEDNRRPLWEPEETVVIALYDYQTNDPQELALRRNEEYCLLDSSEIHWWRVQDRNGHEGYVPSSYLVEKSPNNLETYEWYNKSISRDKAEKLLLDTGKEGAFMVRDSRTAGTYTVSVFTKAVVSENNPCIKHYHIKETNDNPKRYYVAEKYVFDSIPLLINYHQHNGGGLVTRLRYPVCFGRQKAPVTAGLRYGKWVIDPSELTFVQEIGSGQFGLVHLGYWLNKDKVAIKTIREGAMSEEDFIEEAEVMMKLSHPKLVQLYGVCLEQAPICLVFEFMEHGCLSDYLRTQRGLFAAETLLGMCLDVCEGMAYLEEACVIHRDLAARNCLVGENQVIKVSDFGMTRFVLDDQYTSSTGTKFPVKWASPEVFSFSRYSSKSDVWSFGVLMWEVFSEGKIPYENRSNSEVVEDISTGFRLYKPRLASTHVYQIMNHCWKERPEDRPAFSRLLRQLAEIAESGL
Experimental: as §1
as §2, with “ITK” for “BTK”, “‘ADP-Glo™+ITK” for “‘ADP-Glo™+BTK”, “25” for “10”

T1 sequence (Q06187 whole entry): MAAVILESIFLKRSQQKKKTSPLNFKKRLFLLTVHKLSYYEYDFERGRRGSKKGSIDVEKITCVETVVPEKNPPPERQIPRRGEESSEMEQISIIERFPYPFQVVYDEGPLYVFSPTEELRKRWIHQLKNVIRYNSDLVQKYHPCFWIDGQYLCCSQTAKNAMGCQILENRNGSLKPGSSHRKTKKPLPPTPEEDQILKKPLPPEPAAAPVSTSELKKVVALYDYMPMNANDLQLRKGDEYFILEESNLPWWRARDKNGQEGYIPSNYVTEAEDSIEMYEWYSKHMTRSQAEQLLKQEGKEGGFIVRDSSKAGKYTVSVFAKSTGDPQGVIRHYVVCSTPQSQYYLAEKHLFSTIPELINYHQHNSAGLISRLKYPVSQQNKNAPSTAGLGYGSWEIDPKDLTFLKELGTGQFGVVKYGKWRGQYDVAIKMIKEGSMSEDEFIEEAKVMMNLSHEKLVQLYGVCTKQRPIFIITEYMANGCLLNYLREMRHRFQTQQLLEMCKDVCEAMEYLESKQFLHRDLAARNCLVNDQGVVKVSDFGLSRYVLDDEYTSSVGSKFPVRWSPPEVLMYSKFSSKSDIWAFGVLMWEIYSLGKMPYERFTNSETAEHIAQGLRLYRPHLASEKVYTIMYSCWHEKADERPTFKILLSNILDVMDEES

Row | Structure (SMILES) | IC50 (BTK) [nM] | IC50 (ITK) [nM]
1 | C=CC(=O)N1CCC[C@@H](n2nc(-c3ccc(C(=O)Nc4ccccc4)cc3)c3c(N)ncc(-c4cnn(C)c4)c32)C1 [Example 26, (R)-4-(1-(1-acryloylpiperidin-3-yl)-4-amino-7-(1-methyl-1H-pyrazol-4-yl)-1H-pyrazolo[4,3-c]pyridin-3-yl)-N-phenyl benzamide] | 2.7 | 59.3
2 | C=CC(=O)N1CCC[C@@H](n2nc(-c3ccc(C(=O)Nc4ccccc4)cc3)c3c(N)ncc(CO)c32)C1 [Example 27, (R)-4-(1-(1-acryloylpiperidin-3-yl)-4-amino-7-(hydroxymethyl)-1H-pyrazolo[4,3-c]pyridin-3-yl)-N-phenylbenzamide] | 8 | > 500
3 | C=CC(=O)N1CCC[C@@H](n2nc(-c3ccc(C(=O)Nc4ccccc4)cc3)c3c(N)ncc(-c4cn[nH]c4)c32)C1 [Example 28, (R)-4-(1-(1-acryloylpiperidin-3-yl)-4-amino-7-(1H-pyrazol-4-yl)-1H-pyrazolo[4,3-c]pyridin-3-yl)-N-phenylbenzamide] | 4.4 | 181
4 | C=CC(=O)N1CCC[C@@H](n2nc(-c3ccc(C(=O)Nc4ccccc4)cc3)c3c(N)ncc(-c4cc[nH]n4)c32)C1 [Example 29, (R)-4-(1-(1-acryloylpiperidin-3-yl)-4-amino-7-(1H-pyrazol-3-yl)-1H-pyrazolo[4,3-c]pyridin-3-yl)-N-phenylbenzamide] | 3.1 | 556
5 | C=CC(=O)N1CCC[C@@H](n2nc(-c3ccc(C(=O)Nc4ccccc4)cc3)c3c(N)ncc(-c4cc[nH]n4)c32)C1 [Example 30, (R)-4-(1-(1-acryloylpiperidin-3-yl)-4-amino-7-(1H-pyrazol-5-yl)-1H-pyrazolo[4,3-c]pyridin-3-yl)-N-phenylbenzamide] | 3 | 490
6 | C=CC(=O)N1CCC[C@@H](n2nc(-c3ccc(C(=O)Nc4ccccc4)cc3)c3c(N)ncc(-c4ccsc4)c32)C1 [Example 31, (R)-4-(1-(1-acryloylpiperidin-3-yl)-4-amino-7-(thiophen-3-yl)-1H-pyrazolo[4,3-c]pyridin-3-yl)-N-phenylbenzamide] | 15.9 | 376
7 | C=CC(=O)N1CCC[C@@H](n2nc(-c3ccc(C(=O)Nc4ccccc4)cc3)c3c(N)ncc(-c4cnc(C)s4)c32)C1 [Example 32, (R)-4-(1-(1-acryloylpiperidin-3-yl)-4-amino-7-(2-methylthiazol-5-yl)-1H-pyrazolo[4,3-c]pyridin-3-yl)-N-phenylbenzamide] | 6.2 | 200
8 | C=CC(=O)N1CCC[C@@H](n2nc(-c3ccc(C(=O)Nc4ccccc4)cc3)c3c(N)ncc(-c4cnn(C(F)F)c4)c32)C1 [Example 33, (R)-4-(1-(1-acryloylpiperidin-3-yl)-4-amino-7-(1-(difluoromethyl)-1H-pyrazol-4-yl)-1H-pyrazolo[4,3-c]pyridin-3-yl)-N-phenylbenzamide] | 10.2 | 307
9 | C=CC(=O)N1CCC[C@@H](n2nc(-c3ccc(C(=O)Nc4ccccc4)cc3)c3c(N)ncc(-c4cnn(C5CCOCC5)c4)c32)C1 [Example 34, (R)-4-(1-(1-acryloylpiperidin-3-yl)-4-amino-7-(1-(tetrahydro-2H-pyran-4-yl)-1H-pyrazol-4-yl)-1H-pyrazolo[4,3-c]pyridin-3-yl)-N-phenylbenzamide] | 2.3 | 293

The remaining lines, values ahead:

Row | IC50 (BTK) [nM] | IC50 (ITK) [nM] | Structure (SMILES)
10 | 1.9 | 61 | C=CC(=O)N1CCC[C@@H](n2nc(-c3ccc(C(=O)Nc4ccccc4)cc3)c3c(N)ncc(-c4cnn(C5CCN(C)CC5)c4)c32)C1 [Example 35, (R)-4-(1-(1-acryloylpiperidin-3-yl)-4-amino-7-(1-(1-methylpiperidin-4-yl)-1H-pyrazol-4-yl)-1H-pyrazolo[4,3-c]pyridin-3-yl)-N-phenylbenzamide]
11 | 1.5 | 89 | C=CC(=O)N1CCC[C@@H](n2nc(-c3ccc(C(=O)Nc4ccccc4)cc3)c3c(N)ncc(-c4cnn(CCN(C)C)c4)c32)C1 [Example 36, (R)-4-(1-(1-acryloylpiperidin-3-yl)-4-amino-7-(1-(2-(dimethylamino)ethyl)-1H-pyrazol-4-yl)-1H-pyrazolo[4,3-c]pyridin-3-yl)-N-phenylbenzamide]
12 | 3 | 91.3 | C=CC(=O)N1CCC[C@@H](n2nc(-c3ccc(C(=O)Nc4ccccc4)cc3)c3c(N)ncc(-c4cnn(CCN5CCCC5)c4)c32)C1 [Example 37, (R)-4-(1-(1-acryloylpiperidin-3-yl)-4-amino-7-(1-(2-(pyrrolidin-1-yl)ethyl)-1H-pyrazol-4-yl)-1H-pyrazolo[4,3-c]pyridin-3-yl)-N-phenyl benzamide]
13 | 2.6 | 186 | C=CC(=O)N1CCC[C@@H](n2nc(-c3ccc(C(=O)Nc4ccccc4)cc3)c3c(N)ncc(-c4cnn(CCN5CCOCC5)c4)c32)C1 [Example 38, (R)-4-(1-(1-acryloylpiperidin-3-yl)-4-amino-7-(1-(2-morpholinoethyl)-1H-pyrazol-4-yl)-1H-pyrazolo[4,3-c]pyridin-3-yl)-N-phenyl benzamide]
14 | 3.5 | > 1000 | C=CC(=O)N1CCC[C@H](n2nc(-c3ccc(C(=O)Nc4ccccn4)cc3)c3c(N)nccc32)C1 [Example 39, (S)-4-(1-(1-acryloylpiperidin-3-yl)-4-amino-1H-pyrazolo[4,3-c]pyridin-3-yl)-N-(pyridin-2-yl)benzamide]
15 | 2.7 | 6.4 | C=CC(=O)N1CCC[C@@H](n2nc(-c3ccc(C(=O)Nc4ccccn4)cc3F)c3c(N)nccc32)C1 [Example 40, (R)-4-(1-(1-acryloylpiperidin-3-yl)-4-amino-1H-pyrazolo[4,3-c]pyridin-3-yl)-3-fluoro-N-(pyridin-2-yl)benzamide]
16 | 1.5 | 10.1 | C=CC(=O)N1CCC[C@@H](n2nc(-c3ccc(C(=O)Nc4cc(F)ccn4)cc3)c3c(N)nccc32)C1 [Example 41, (R)-4-(1-(1-acryloylpiperidin-3-yl)-4-amino-1H-pyrazolo[4,3-c]pyridin-3-yl)-N-(4-fluoropyridin-2-yl)benzamide]
17 | 66.3 | 241 | C=CC(=O)N1CCC[C@@H](n2nc(-c3ccc(C(=O)N(C(=O)C=C)c4cc(F)ccn4)cc3)c3c(N)nccc32)C1 [Example 42, (R)—N-acryloyl-4-(1-(1-acryloylpiperidin-3-yl)-4-amino-1H-pyrazolo[4,3-c]pyridin-3-yl)-N-(4-fluoropyridin-2-yl)benzamide]
18 | 2.5 | 146 | C=CC(=O)N1CCC[C@@H](n2nc(-c3ccc(C(=O)Nc4ccccn4)cc3)c3c(N)ncc(Nc4ccccc4)c32)C1 [Example 43, (R)-4-(1-(1-acryloylpiperidin-3-yl)-4-amino-7-(phenylamino)-1H-pyrazolo[4,3-c]pyridin-3-yl)-N-(pyridin-2-yl)benzamide]
19 | > 1.56 | 105 | C=CC(=O)N1CCC[C@@H](n2nc(-c3ccc(C(=O)Nc4ccccc4)cc3)c3c(N)ncc(C)c32)C1 [Example 44, (R)-4-(1-(1-acryloylpiperidin-3-yl)-4-amino-7-methyl-1H-pyrazolo[4,3-c]pyridin-3-yl)-N-phenyl benzamide]
20 | 11.2 | 66.8 | C=CC(=O)N1CCC[C@@H](n2nc(-c3ccc(C(=O)Nc4ccccn4)cc3)c3c(N)ncc(C)c32)C1 [Example 45, (R)-4-(1-(1-acryloylpiperidin-3-yl)-4-amino-7-methyl-1H-pyrazolo[4,3-c]pyridin-3-yl)-N-(pyridin-2-yl)benzamide]
21 | > 400 | > 1000 | C=CC(=O)N1CC[C@H](n2nc(-c3ccc(C(=O)Nc4ccccc4)cc3)c3c(N)ncc(-c4cnn(C(F)F)c4)c32)C1 [Example 46, (S)-4-(1-(1-acryloylpyrrolidin-3-yl)-4-amino-7-(1-(difluoromethyl)-1H-pyrazol-4-yl)-1H-pyrazolo[4,3-c]pyridin-3-yl)-N-phenylbenzamide]
